The results in this text go back to US11109593B2, “Isoxazolin-5-one derivative and herbicide containing same as active ingredient” (HOKKO CHEMICAL INDUSTRY CO., LTD., priority 2017, dated 2021).

Structures are written as SMILES.

What all share (assay type): in vivo
Assay [1] deals with Echinochloa crus-galli. Description: Test Example 4: herbicidal effect test by treatment of leave and stem in dry field farming (seven days after seeding). The settings on record: 120 g/10a active ingredient; emulsion sprayed seven days after seeding; evaluated 14 days after treatment. How it is done:
(§1) This test was conducted in a double system per one agent solution concentration area, and the herbicidal rates (%) were determined by the following equation (Math. 1) on 14 days after the treatment with the agents. Herbicidal Rate (%)={1-(Average Dry Weight (g) of Plant of Treated Area)/(Average Dry Weight (g) of Plant of Untreated Area)}×100 [Math. 1]
(§2) Herbicidal Effect Test by Treatment of Leave and Stem in Dry Field Farming
(§3) Pots with a size of 36 cm^2 were filled with a dry field farming soil (alluvium). The soil of the top layer of 1 cm and seeds of weeds, namely southern crabgrass, Echinochloa crus-galli, Chenopodium album and Amaranthus viridis, 20 seeds each, were evenly mixed, and the top layer was gently pressed. Emulsions prepared using the compounds in Table 6 below according to Formulation Example 5 were diluted with water seven days after seeding, and the water-diluted agent solutions were sprayed to the soil surfaces at a ratio of 100 liters per 10 ares. The converted amount of the applied active ingredient corresponded to 120 g per 10 ares. The herbicidal effects were evaluated by the same standard as that in Test Example 1 on 14 days after the treatment with the agents. […] The compound numbers in Table 6 are the same as those in Table 1 and Table 2 above.

The test system of a further assay is southern crabgrass. Described as above. The settings on record: 120 g/10a active ingredient; emulsion sprayed seven days after seeding; evaluated 14 days after treatment. How it is done:
as §1, §2, §3

The test system of a further assay is Chenopodium album. The assay is described as above. The note with it: 120 g/10a active ingredient; emulsion sprayed seven days after seeding; evaluated 14 days after treatment. The protocol:
as §1, §2, §3

The next assay has as its system Amaranthus viridis. Described as above. The note with it: 120 g/10a active ingredient; emulsion sprayed seven days after seeding; evaluated 14 days after treatment. The protocol: as §1, §2, §3
In assay [2] the test system is broad leaf weeds (Lindernia pyxidaria and Monochoria vaginalis). Briefly: Test Example 1: herbicidal effect test by treatment of rice paddy soil (immediately after seeding). The settings on record: 120 g/10a active ingredient, dry weight vs untreated area, 14 days after treatment. In short, it runs like this:
(§4)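 Application occurs immediately after seeding, with diluted emulsion added to paddy water (about 3 cm deep) over puddled, fertilized soil at 120 g active ingredient per 10 ares. Herbicidal rate is calculated from mean dry weight against untreated controls 14 days later.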

Assay [3] has as its system Scirpus juncoides. The assay is described as above. The settings on record: 120 g/10a active ingredient, dry weight vs untreated area, 14 days after treatment. In a few lines:
as §4

The subject of assay [4] is Echinochloa crus-galli. The assay is described as above. The note with it: 120 g/10a active ingredient, dry weight vs untreated area, 14 days after treatment. In short, it runs like this: as §4
Assay [5] has as its system broad leaf weeds (Lindernia pyxidaria and Monochoria vaginalis). Description: Test Example 2: herbicidal effect test by treatment during growing period in paddy rice cultivation (seven days after seeding). The settings on record: 120 g/10a active ingredient, assessed 14 days after treatment, dry weight vs untreated area. In a few lines: (§5)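 Greenhouse flooded-pot test, seeds sown in puddled paddy soil; emulsion applied into water 7 d after seeding, 120 g a.i./10 a. Dry-weight-based herbicidal rate at 14 d, n=2.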

For assay [6], the system named is Scirpus juncoides. The description is as above. The settings on record: 120 g/10a active ingredient, assessed 14 days after treatment, dry weight vs untreated area. In short, it runs like this: as §5
For assay [7], the system named is Echinochloa crus-galli. The assay is described as above. The note with it: 120 g/10a active ingredient, assessed 14 days after treatment, dry weight vs untreated area. In a few lines:
as §5

For the compound `Cc1c(Cc2cc(F)ccc2N(S(=O)(=O)C(F)(F)F)S(=O)(=O)C(F)(F)F)c(=O)on1Cc1ccccc1` [Compound 1-32], in the assay with Echinochloa crus-galli [1], the “herbicidal effect (herbicidal rate), Echinochloa crus-galli” value was 0%. In the assay on southern crabgrass, the “herbicidal effect (herbicidal rate), southern crabgrass” value (“herbicidal effect … southern crabgrass” below) was determined as 40%. Further, in the assay on Chenopodium album, the “herbicidal effect (herbicidal rate), Chenopodium album” value (“herbicidal effect … Chenopodium album” below) was 60%. Also, in the assay with Amaranthus viridis, the “herbicidal effect (herbicidal rate), Amaranthus viridis” value (shortened to “herbicidal effect … Amaranthus viridis”) is 40%. The “Herbicidal rate (%) Lindernia pyxidaria” value in [2] and in [5] was 80% throughout. Besides, the “Herbicidal rate (%) Monochoria vaginalis” value in [2] and in [5] was 90% in each case. For the same compound, the “Herbicidal rate (%) Scirpus juncoides” value with Scirpus juncoides [3] and in the assay on Scirpus juncoides [6] was 90% each time. Besides, the figures for the “Herbicidal rate (%) Echinochloa crus-galli” value in the assay on Echinochloa crus-galli [4] and in the assay on Echinochloa crus-galli [7] were 80% and 90%, respectively.

For the compound `CC(C)Cn1oc(=O)c(Cc2ccccc2NS(=O)(=O)C(F)(F)F)c1C(F)(F)F` [Compound 1-81], in the assay with Echinochloa crus-galli [1], the “herbicidal effect (herbicidal rate), Echinochloa crus-galli” value came to 90%. Further, in the assay on southern crabgrass, the “herbicidal effect … southern crabgrass” value turned out to be 80%. Moreover, in the assay with Chenopodium album, the “herbicidal effect … Chenopodium album” value is given as 0%. In addition, in the assay with Amaranthus viridis, the “herbicidal effect … Amaranthus viridis” value is 0%. The “Herbicidal rate (%) Lindernia pyxidaria” value in assay [2] is listed as 80%; in assay [5], 60%. Besides, the “Herbicidal rate (%) Monochoria vaginalis” value in assay [2] and in [5] was 80% throughout. In addition, the “Herbicidal rate (%) Scirpus juncoides” value in the assay on Scirpus juncoides [3] and in the assay with Scirpus juncoides [6] was 90% in each case. Besides, the “Herbicidal rate (%) Echinochloa crus-galli” value in the assay with Echinochloa crus-galli [4] worked out at 90%; with Echinochloa crus-galli [7], 80%.

Regarding `Cc1c(Cc2ccccc2NS(=O)(=O)C(F)(F)F)c(=O)on1CCCl` [Compound 1-133], the “herbicidal effect (herbicidal rate), Echinochloa crus-galli” value in the assay on Echinochloa crus-galli [1] is given as 90%. Besides, the “herbicidal effect … southern crabgrass” value with southern crabgrass is listed as 40%. For the same compound, the “herbicidal effect … Chenopodium album” value with Chenopodium album was determined as 40%. In the assay on Amaranthus viridis, the “herbicidal effect … Amaranthus viridis” value is recorded as 0%. For the same compound, the entries for the “Herbicidal rate (%) Lindernia pyxidaria” value in assay [2] and in assay [5] were 100% and 60%, respectively. In addition, the entries for the “Herbicidal rate (%) Monochoria vaginalis” value in assay [2] and in [5] were 100% and 80%, respectively. Besides, the figures for the “Herbicidal rate (%) Scirpus juncoides” value with Scirpus juncoides [3] and with Scirpus juncoides [6] were 100% and 80%, respectively. Also, the figures for the “Herbicidal rate (%) Echinochloa crus-galli” value in the assay on Echinochloa crus-galli [4] and in the assay on Echinochloa crus-galli [7] were 80% and 60%, respectively.

In the case of `Cc1c(Cc2ccccc2NS(=O)(=O)C(F)(F)F)c(=O)on1CC(F)(F)F` [Compound 1-134], the “herbicidal effect (herbicidal rate), Echinochloa crus-galli” value in the assay on Echinochloa crus-galli [1] worked out at 90%. In addition, the “herbicidal effect … southern crabgrass” value in the assay on southern crabgrass is on record as 60%. Besides, the “herbicidal effect … Chenopodium album” value in the assay on Chenopodium album turned out to be 40%. Further, the “herbicidal effect … Amaranthus viridis” value in the assay with Amaranthus viridis is 50%. The entries for the “Herbicidal rate (%) Lindernia pyxidaria” value in assay [2] and in [5] were 60% and 40%, respectively. Besides, the “Herbicidal rate (%) Monochoria vaginalis” value in assay [2] and in [5] was 80% in each case. Moreover, the “Herbicidal rate (%) Scirpus juncoides” value with Scirpus juncoides [3] and with Scirpus juncoides [6] was 80% in each case. The “Herbicidal rate (%) Echinochloa crus-galli” value with Echinochloa crus-galli [4] and with Echinochloa crus-galli [7] was 80% throughout.

Turning to `CSCCn1oc(=O)c(Cc2ccccc2NS(=O)(=O)C(F)(F)F)c1C` [Compound 1-162], the “herbicidal effect (herbicidal rate), Echinochloa crus-galli” value in the assay with Echinochloa crus-galli [1] is 90%. Moreover, the “herbicidal effect … southern crabgrass” value in the assay with southern crabgrass worked out at 60%. In the assay with Chenopodium album, the “herbicidal effect … Chenopodium album” value was 60%. The “herbicidal effect … Amaranthus viridis” value in the assay on Amaranthus viridis is 50%. The results for the “Herbicidal rate (%) Lindernia pyxidaria” value in assay [2] and in [5] were 100% and 70%, respectively. The “Herbicidal rate (%) Monochoria vaginalis” value in assay [2] was found to be 100%; in [5], 80%. Besides, the figures for the “Herbicidal rate (%) Scirpus juncoides” value with Scirpus juncoides [3] and in the assay with Scirpus juncoides [6] were 100% and 80%, respectively. Besides, the “Herbicidal rate (%) Echinochloa crus-galli” value was 100% in the assay with Echinochloa crus-galli [4] and 90% in the assay on Echinochloa crus-galli [7].
